Measurements reported in ChEMBL document CHEMBL3301361, “Experimental in vitro DMPK and physicochemical data on a set of publicly disclosed compounds”.
Converted amounts (≈) assume the structure as drawn.

How the values were obtained:
physchem [1] = assay: physchem
in vitro [2] = details: human, plasma, PPB
in vitro [3] = details: human
physchem [4] = details: octan-1-ol/water, pH 7.4, LogD7.4
in vitro [5] = details: hepatocytes
physchem [6] = details: pH 7.4 buffer
in vitro [7] = details: SD, HW or BN, rat, plasma

Compound | pKa (physchem [1]) | fraction unbound at 5 h (in vitro [2]) | microsomal CLint (in vitro [3]; liver microsomes) | logD (physchem [4]) | hepatocyte CLint (in vitro [5]) | solubility thermodynamic (physchem [6]) | microsomal CLint (in vitro [3]; microsomes) | fraction unbound at 5 h (in vitro [7])
CCS(=O)(=O)c1ccc(-c2cc(C(F)(F)F)ccc2CCC(=O)O)c(C)c1 | 4.2 | 0.0256 | < 3 µL/min/mg | – | – | – | – | –
N#Cc1ccc2[nH]c(-c3ccc(F)cc3)c(CCCC(=O)NS(N)(=O)=O)c2c1 | 5.9 | 0.0146 | < 3 µL/min/mg | 1.95 | 19.6 µL/min/1e6 cells | 26.9 µM (≈ 10.8 µg/mL) | – | –
CS(=O)(=O)NC(=O)CCCc1c(-c2ccc(F)cc2)[nH]c2ccc(C#N)cc12 | 5.2 | 0.013 | – | 1.5 | 14.3 µL/min/1e6 cells | – | < 3 µL/min/mg | –
Cc1ccc(S(=O)(=O)Nc2c(C(=O)N[C@@H](C)C(C)(C)C)c(C)nn2C(C)(C)C)cc1 | 5.5 | – | – | 1.84 | – | 513 µM (≈ 223 µg/mL) | 37 µL/min/mg | –
CC1=C(CC(=O)O)c2cc(F)ccc2/C1=C\c1ccc([S+](C)[O-])cc1 (centres undefined) | 3.9 | – | < 3 µL/min/mg | -0.01 | – | – | – | –
Cc1ccc2c(c1)c(Sc1ccc(Cl)cc1)c(C)n2CC(=O)O | 4.1 | – | 7 µL/min/mg | 2.18 | – | – | – | –
N#Cc1c(O)nc(N)nc1-c1ccccc1 | 6.52 | 0.0366 | – | – | – | – | – | 0.0366
Cc1ccc(S(=O)(=O)Nc2c(C(=O)N[C@@H](C)C(C)(C)C)c(C(F)(F)F)nn2-c2ccccc2)cc1 | 3.8 | 0.0043 | 120 µL/min/mg | – | 18.8 µL/min/1e6 cells | – | – | 0.0097
CCS(=O)(=O)c1ccc(-c2cc(C(F)(F)F)ccc2OCC(=O)O)c(Cl)c1 | 3.3 | – | < 3 µL/min/mg | – | – | – | – | 0.0313
CCC(CC)NC(=O)c1cn(-c2ccccc2)nc1NS(=O)(=O)c1ccc(C)cc1 | 5.3 | 0.0013 | 9 µL/min/mg | 2.51 | 7 µL/min/1e6 cells | 174 µM (≈ 74.1 µg/mL) | – | 0.0033
CN(C)c1ccc(S(=O)(=O)NC(=O)N2CCC(N3CCC(Oc4ccc(Cl)c(Cl)c4)CC3)CC2)cc1 | 6.1 | 0.0017 | 10.5 µL/min/mg | 1.7 | – | – | – | –
COc1nc(Cl)c(Cl)nc1NS(=O)(=O)c1ccc(Cl)s1 | 3.6 | 0.0008 | 10 µL/min/mg | – | – | – | – | –
O=C(O)CCc1nc(-c2ccccc2)c(-c2ccccc2)o1 [OXAPROZIN] | 3.87 | 0.0005 | – | – | – | – | – | 0.0024
CCC(CC)n1nc(C)c(C(=O)N[C@@H](C)C(C)(C)C)c1NS(=O)(=O)c1ccc(C)cc1 | 4.6 | 0.02 | – | 1.88 | – | – | – | 0.0818
Nc1nc2nc(SCc3ccccc3)[nH]c(=O)c2s1 | 7.1 | – | < 3 µL/min/mg | – | – | – | – | –
O=C(O)c1ccc(CN2CCC(CN3CCC(Oc4ccc(Cl)c(Cl)c4)CC3)CC2)cc1 | 3.5 | – | < 3 µL/min/mg | – | – | – | – | –
O=C(O)c1ccc(-c2ccc(Cl)c(C(=O)NCC34CC5CC(CC(C5)C3)C4)c2)cc1 | 4.1 | 0.0077 | – | 2.48 | – | – | – | 0.0074
CCC(CC)NC(=O)c1c(C)nn(C(C)C)c1NS(=O)(=O)c1ccc(C)cc1 | 4.7 | 0.035 | – | 0.92 | – | – | – | 0.089
C[C@@H](C(=O)NS(C)(=O)=O)c1ccc(OS(=O)(=O)C(F)(F)F)cc1 [LADARIXIN] | 3.1 | – | < 3 µL/min/mg | – | < 3 µL/min/1e6 cells | – | – | –
Cc1nn(-c2ccccc2)c(NC(=O)NS(=O)(=O)c2ccc(Cl)cc2)c1C#N | 2.3 | – | – | – | 21.5 µL/min/1e6 cells | – | < 3 µL/min/mg | 0.0175
COCCNc1nc(N)c2nc(O)n(Cc3ccccc3)c2n1 | 10 | 0.208 | 5.5 µL/min/mg | 2.18 | – | – | – | –
CCC(CC)NC(=O)c1nnn(-c2ccccc2)c1NS(=O)(=O)c1ccc(C)cc1 | 3.3 | 0.0072 | 35 µL/min/mg | 0.46 | 56 µL/min/1e6 cells | – | – | –
